Publication PMC2106221 (The Journal of Cell Biology, 1963)
Where two headings read alike, the source gives them in different places.

Experiments:
[1] = tested on: trypsin-like amidase and esterase activity in human mast cells (mast cell enzyme(s)); type: biochemical; conditions: for time required for the appearance of visible mast cells, mean: double-blind; for time to observable mast cells at theoretical Vm: from the Lineweaver-Burk plot; for time for the demonstration of mast cells: optimal substrate concentration
[2] = target: T1, bovine trypsin (crystalline) (Bos taurus, UniProt P00760); type: biochemical; conditions: for Percentage inhibition 5 min.: DL-BANA 0.60 mM, enzyme 10 μg/ml
T1 sequence (P00760 24-246): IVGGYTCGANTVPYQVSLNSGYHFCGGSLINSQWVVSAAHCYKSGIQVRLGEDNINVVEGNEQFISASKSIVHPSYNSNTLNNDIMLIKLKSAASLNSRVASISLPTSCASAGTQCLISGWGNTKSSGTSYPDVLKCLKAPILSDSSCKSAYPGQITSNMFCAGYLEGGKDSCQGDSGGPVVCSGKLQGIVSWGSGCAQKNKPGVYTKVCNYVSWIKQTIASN

canine mast cells = test: histochemical reaction in canine skin sections; type: biochemical, dog; conditions: incubation period of 1 hour
[3] = spontaneous hydrolysis of ester substrate in water/buffer; type: physicochemical
chymotrypsin = conditions: pH 7.2 ref 2; cited from earlier work
[4] = target: T1, bovine trypsin (crystalline); conditions: trypsin 4 X pancreatin (Nutritional Biochemical Corporation) ref 1; cited from earlier work
[5] = diazonium coupling velocity in test tube, spectrophotometric half-reaction times; type: physicochemical
[6] = Lineweaver-Burk plot, human mast cells

Structure (SMILES): Cl.N=C(N)NCCCC(NC(=O)c1ccccc1)C(=O)Nc1ccc2ccccc2c1 (racemic) [DL-BANA, benzoyl-DL-arginine β-naphthylamide hydrochloride]
- time required for the appearance of visible mast cells, mean ([1]; Experiment 1, DL-BANA 0.12 mM): 7.0 min
- time required for the appearance of visible mast cells, mean ([1]; Experiment 2, DL-BANA 0.050 mM): 15.9 min
- time to observable mast cells at theoretical Vm [1]: 2 min
- time for the demonstration of mast cells ([1]; human mast cells): 5 to 6 min
- Vm ([2]; in the absence of Garnet GBC): 50 mμM β-naphthylamine liberated
- Vm ([2]; in the presence of Garnet GBC): 30 mμM β-naphthylamine liberated

Structure (SMILES): Cl.NCCCCC(NC(=O)c1ccccc1)C(=O)Nc1ccc2ccccc2c1 (racemic) [DL-BLyNA, benzoyl-DL-lysine β-naphthylamide hydrochloride]
- time to observable mast cells at theoretical Vm [1]: 2 min
- time for the demonstration of mast cells ([1]; human mast cells): 5 to 6 min
- reaction in canine mast cells (canine mast cells): No reaction

Structure (SMILES): NC(=O)[C@H](CCCN=C(N)N)NC(=O)c1ccccc1 [BAA, benzoyl-L-arginine amide, reference compound]
- nature of inhibition of DL-BANA hydrolysis [1, 6]: competitive
- nature of inhibition of DL-BLyNA hydrolysis ([1]; human mast cells): competitive

Structure (SMILES): COC(=O)[C@H](CCCNC(=N)N)NC(=O)c1ccccc1 [BAME, benzoyl-L-arginine methyl ester, reference compound]
- nature of inhibition of DL-BANA hydrolysis [1, 6]: competitive
- nature of inhibition of EACA-AS hydrolysis [1, 6]: competitive inhibitor

Structure (SMILES): Cl.N=C(N)NCCC[C@@H](NC(=O)c1ccccc1)C(=O)Nc1ccc2ccccc2c1 [D-BANA, benzoyl-D-arginine β-naphthylamide hydrochloride]
- nature of inhibition of DL-BANA hydrolysis [1, 6]: competitive inhibitor
- hydrolysis in the mast cells ([1]; tested as substrate): not hydrolyzed
- nature of inhibition of tryptic hydrolysis of L-BANA [2]: competitive inhibitor
- substrate for trypsin [2]: not a substrate for trypsin

Structure (SMILES): NCCCCCC(=O)Oc1cc2ccccc2cc1C(=O)Nc1ccccc1 [EACA-AS, Naphthol AS ε-aminocaproate]
- substrate concentration at approximately half-maximal velocity ([1]; human mast cells, Fig. 7): ~7 #M
- substrate concentration at approximately 50 per cent of the reaction velocity ([2]; trypsin, velocity calculated from the Lineweaver-Burk plot): ~20 /ZM
- spontaneous hydrolysis in water ([3]; pH 5-6): insignificant
- mean substrate concentration during spontaneous hydrolysis ([3]; pH 7.2, during 20 minutes): 92 per cent of the original concentration
- mean substrate concentration during spontaneous hydrolysis ([3]; pH 7.2, during 30 minutes): 90 per cent of the original concentration
- mean substrate concentration during spontaneous hydrolysis ([3]; pH 7.2, during the first 10 minutes): 95 per cent of the original concentration
- hydrolysis by chymotrypsin relative to that of trypsin (chymotrypsin): about 10 per cent

Structure (SMILES): Cc1ccccc1NC(=O)c1cc2ccccc2cc1OC(=O)CCCCCN [EACA-AS-D, Naphthol AS-D ε-aminocaproate]
- results as substrate compared with EACA-AS ([1]; both biochemical and histochemical studies): essentially the same results as EACA-AS

Structure (SMILES): Cc1ccccc1N=Nc1ccc([N+]#N)c(C)c1 [Garnet GBC]
- Percentage inhibition 5 min. ([2]; Garnet GBC 0.05 mg/ml): 4.7%
- Percentage inhibition 5 min. ([2]; Garnet GBC 0.10 mg/ml): 13.2%
- Percentage inhibition 5 min. ([2]; Garnet GBC 0.20 mg/ml): 16.5%
- Percentage inhibition 5 min. ([2]; Garnet GBC 0.40 mg/ml): 20.1%
- Percentage inhibition 5 min. ([2]; Garnet GBC 2.00 mg/ml): 35.0%
- nature of inhibition of tryptic DL-BANA hydrolysis ([2]; Lineweaver-Burk plot): uncompetitive inhibition
- inhibition of Vm of DL-BANA hydrolysis by the diazonium salt ([2]; from Lineweaver-Burk plot, Fig. 6): about 40 per cent
- change of hydrolysis rate after preincubation with diazonium salt ([2]; preincubation of 60 minutes prior to the addition of substrate): no more than 15 per cent
- inhibition of DL-BANA hydrolysis [4]: Up to 75 per cent

Structure (SMILES): Nc1ccc2ccccc2c1 [β-naphthylamine]
- Half-reaction time of coupling with Garnet GBC ([5]; Garnet GBC 0.70 mg/ml, presence of Tween 20): 7 s
- Half-reaction time of coupling with Garnet GBC ([5]; Garnet GBC 0.70 mg/ml, presence of albumin): 48 s
- Half-reaction time of coupling with Garnet GBC ([5]; Garnet GBC 0.70 mg/ml, water, pH 7.2): 93 s
- Half-reaction time of coupling with Garnet GBC ([5]; Garnet GBC 1.40 mg/ml, presence of Tween 20): 4 s
- Half-reaction time of coupling with Garnet GBC ([5]; Garnet GBC 1.40 mg/ml, presence of albumin): 23 s
- Half-reaction time of coupling with Garnet GBC ([5]; Garnet GBC 1.40 mg/ml, water, pH 7.2): 42 s
